Measured values from patent US20080132531A1, “SYNERGISTIC COMBINATIONS OF N[…] OPIOID ANALGESICS” (Yaupon Therapeutics, Inc., priority 2005, published 2008).

Columns and labels:
[1] = Aun, 1999, cited from earlier work
[2] = tested on: neuropathic rats (sciatic nerve constriction), nerve-injured paw; assay: Sciatic nerve constriction model of peripheral neuropathy, mechanical (paw pressure) and thermal (plantar) hyperalgesia; assay type: in vivo, Sprague Dawley rats; conditions: for antinociception in response to mechanical and thermal noxious stimuli on the nerve-injured paw: 1, 2, 4, 8 mg/kg IP; for ED50 (antinociceptive potency) / ED50: from % MPE vs. log dose curves; for ED50: Rattus norvegicus, read-out: ED50 (antinociceptive potency)
Procedure: (§1) Sprague Dawley (about 90 days old; 350 g) male rats were used (8 rats/drug/experimental group). R,S-norketamine, S-norketamine, R-norketamine (Yaupon Therapeutics Inc.) and R,S-ketamine (Sigma) were dissolved in saline and injected intraperitoneally (IP, 1 ml/kg). Each rat received four doses of a drug (1, 2, 4, 8 mg/kg; repeated block Latin square design; 48 h intervals). Saline served as control.
A sciatic nerve constriction model of peripheral neuropathy previously employed was used [Benett and Xie, 1988]. Briefly, under pentobarbital anesthesia (40 mg/kg, IP) the ligation of sciatic nerve and sham surgery were performed on the left and right hind paws, respectively. Proximal to the sciatic trifuracation, nerve (7 mm) was freed from adhering tissue and four loose ligatures were tied around nerve (1 mm apart) with 4.0 chromic gut, barely constricting the diameter of the nerve. The incision was closed in layers. […] No severe motor impairment was observed.
The analgesic properties of drugs were determined in neuropathic rats. Responsiveness to both mechanical and thermal noxious stimulations was determined in separate groups of rats. Rats were trained on three occasions before initiation of the study. Experiments were performed on days 7, 9, 11 and 14 of recovery from surgery (as this is the time of maximal hyperalgesia [Holtman et al., 2003]). Responses were assessed prior to (baseline, taken twice) and at 15-120 min after injection. The left and right paws were tested alternatively in each rat.
Mechanical hyperalgesia was measured using an increasing amount of weight to the paw [Randall and Selitto, 1957]. The hind paw was placed between a flat surface and a blunt pointer in the Basile Analgesimeter (UGO Basile) and increasing pressure (32 g/s) was applied to the dorsal side of the paw. Vocalization was used as end-point [vocalization threshold, VT (g)]. Cut-off at 300 g prevented tissue damage.
The thermal hyperalgesia was measured by plantar test which used a ramp heat stimulus [Hargreaves et al., 1988]. The radiant heat (60% intensity) was positioned under the glass floor directly beneath the plantar hind paw in Plantar Stimulator Analgesia Meter (IITC, Life Science). Latency of paw withdrawal from the heat source was measured [paw withdrawal threshold, PWT (s)]. A cut-off at 20 s prevented tissue damage.
All data were normalized for preinjection baseline values. Areas under the curves (AUC) were calculated for normalized data. Maximum possible effect was calculated as % MPE=(post drug response−baseline/cut off−baseline)×100. ED50 was calculated from % MPE vs. log dose curves. All data were presented as mean ±SEM of 8 rats. The statistical analysis was performed with use of one and two-way repeated measures analysis of variance (ANOVA), post hoc Student Newman Keulus (SNK), Dunnan and t tests.

intact (unoperated) rats [3] = assay: Locomotor activity in intact rats (Opto-Varimex activity monitor); assay type: in vivo, Sprague Dawley rats; conditions: highest dose 8 mg/kg IP
Procedure: as §1
(§2) The behavioral effects of drugs were determined in intact (unoperated) rats. Locomotor activity was determined using the Opto-Varimex infrared photocell-based activity monitor (Columbus Instrument). All activities were scored during 5 min sessions, prior to and 15, 60 and 120 min after injection. All testing were conducted between 10:00-13:00. Assessments were performed in 48 h intervals. Ataxia was determined at 0, […] after injection. The modified behavioral scale [Sturgon et al., 1979] was used for quantification (Table 1).

intact (unoperated) rats [4] = assay: Ataxia, behavioral rating scale, intact rats; assay type: in vivo, Sprague Dawley rats; conditions: pilot study
Procedure: as §1, §2

Sprague-Dawley rats [5] = assay: Tail-flick test (radiant thermal stimulus); assay type: in vivo; conditions: for antinociception, drug alone, IP: morphine 2-10 mg/kg, S-norketamine 0.75-3 mg/kg; for antinociception, drug alone, IT: morphine 3-30 μg, S-norketamine 10-100 μg
Procedure: A dose response curve was generated by determining the analgesic effects of combining a constant dose of an opioid (e.g., morphine) along with an increasing dose of R,S-norketamine, Male and female Sprague-Dawley rats (n=8/sex) all with an approximate age of 85 to 90 days. Each rat should be weighed, prior to being subjected to any tests, on the day of the experiment. Experiments were performed in 72 hour intervals, and prior to the test, the rats were habituated for three days to handling and the tail-flick procedure without heat exposure. • 1 The tail-flick apparatus (IITC Model 33, Life Science, Woodland Hills, Calif.) is pre-warmed for at least 30 minutes. • 2 The intensity of the lamp is adjusted so that baseline tail-flick latency for the rats is equal to approximately 2.0 seconds. […] Tail-flick latency (“TFL”) is measured twice in an approximate 15 minute intervals and an average of the two times determines the baseline. • 8 Once the baseline value is determined, TFL is measured, following the injection of drugs, at times 15, 30, 60 and 120 minutes.
• Normalize data for baseline value (postinjection value at each time point−average preinjection baseline). • Calculate area under the curve (AUC0-120min) for normalized data. • Calculate maximum area under the curve (AUCmax), assuming 10 second response for each time point. • Calculate % MPE=(AUC0-120min)/(AUCmax)×100. • Post-injection thresholds are compared to the baseline threshold using paired t-test. • The difference between doses will be analyzed by 2 way RM ANOVA. • The difference between sex will be analyzed by 2 way RM ANOVA. • All data are presented as mean ±SEM of n rats.
• Normalized data (NOR): subtract average baseline from each value NOR=(post-injection TFL)−(pre-injection baseline) • 12 Percent maximum effect (MPE): • % MPE=(post-injection value−pre-injection baseline)/(cut-off−pre-injection baseline)×100% • 13 Area under the time action curve (AUC0-120 min) calculated by trapezoidal rule • Individual AUC0-120 min.=(average value over the time interval)×(time interval) • Total AUC0-120 min.: sum of individual AUC • Example: AUC0-120 min., % MPE=(15-0 min)×[(MPE0+MPE15)×½]+(30−15)×[(MPE30+MPE15)×½]
A study was undertaken to determine whether S-norketamine (“norKET”) enhances the analgesic effect of morphine (“MOR”). […] Saline (vehicle) served as a control. Responsiveness to thermal noxious stimuli was determined using the tail-flick assay (baseline tail-flick latency (TFL) ˜2-3 s; cut off TFL=10 s). TFL was determined at 0, 15, 30, 60, 90, and 120 min.
Male Sprague-Dawley rats, approximately 90 days old, weighting about 300 g were used. Intrathecal catheter: Chronic catheterization of the spinal subarachnoid space was performed according to Yaksh and Rudy (1976). Drugs: Morphine sulfate (Mallinckrodt) and S-norketamine hydrochloride (Yaupon Therapeutics, Inc.) were dissolved in saline. Saline served as control. Doses refer to salt forms.
Graded doses of morphine and S-norketamine alone as well as a fixed dose of morphine combined with various doses of S-norketamine were administered […] (IP) or intrathecally (IT) in volumes equal to 1 ml/kg and 10 μl, respectively. Doses were balanced by Latin square design: 2× (4×4). Injections were made at weekly intervals.
Tail flick latencies (TFL) were measured using a standard tail-flick apparatus (LifeScience). Preinjection baseline and cut-off times were equal to 2-3 s and 10 s, respectively. TFL was assessed twice prior to (baseline) and at fixed time points after injection. All data were normalized for baseline. The areas under the time action curves (AUC0-120 min) were calculated for normalized data. The percent of maximum effect was calculated as % MPE=[(TFL-baseline)/(10-baseline)×100] at each time point. Data are presented as mean ±SEM of (n) rats.

rats = conditions: intravenous or intraspinal; cited from earlier work
rat = assay: Analgesic dose of norketamine in the rat; assay type: in vivo
Procedure: An “optimal” dose is defined as a dose of an analgesic, when taken alone, is sufficient to provide analgesic relief. In the rat, for example, an optimal dose of norketamine is about 8 mg/kg intraperitoneally (IP). A “sub-optimal” dose is defined as about 1 to about 60% of the optimal dose used to induce analgesia; more preferably about 5% to about 40%, and even more preferably about 10% to about 20%. A “sub-analgesic” does is defined as a dose at which little to no analgesic effect is provided. For example, a sub-analgesic dose of norketamine is less than about 3 mg/kg. Typically, a sub-analgesic dose correlates with less than about 5 AUC units or less than about 5% MPE (maximum possible effect).

NMDA receptor = conditions: Ebert et al., 1997; cited from earlier work
[6] = Plasma levels of S-norketamine versus antinociception (pilot study); assay type: in vivo; conditions: after IP administration in rat
Procedure: Plasma concentration of S-norketamine 200-700 ng/ml was associated with the significant analgesic effect after IP administration in rat.

Sprague-Dawley rats [7] = assay: Opioid tolerance development, tail-flick test; assay type: in vivo; conditions: for effect on oxycodone tolerance development: S-norketamine given with oxycodone, IP
Procedure: A tail flick test as described above was administered intrapertoneally to eight Sprague-Dawley rats as described above. The * symbol denotes a statistically difference with oxycodone and norketamine combined versus the two drugs used alone. Data were analyzed with the SNK method, with P less than 0.05. […] A tail flick test as described above was administered intrapertoneally to eight Sprague-Dawley rats as described above. The * symbol denotes a difference with oxycodone used alone as compared to the combination of oxycodone with S norketameine and the +symbol denotes a difference from day 1. Data were analyzed with the SNK method, with P less than 0.05.

SMILES: CN[C@]1(c2ccccc2Cl)CCCCC1=O [S-ketamine, reference compound]
- potency relative to R-ketamine [1]: twice as potent as R-ketamine

SMILES: N[C@@]1(c2ccccc2Cl)CCCCC1=O [R-norketamine]
- antinociception in response to mechanical and thermal noxious stimuli on the nerve-injured paw ([2]; nerve-injured paw): attenuated, in dose-related fashion
- ED50 (antinociceptive potency) ([2]; nerve-injured paw, IP): 51.1 ± 0.54 mg/kg
- antinociception on the control (sham-operated) paw ([2]; IP): Neither drug had effect

SMILES: NC1(c2ccccc2Cl)CCCCC1=O (racemic) [R,S-norketamine, 2-(2-chlorophenyl)-2-amino-cyclohexanone]
- motor (depressive) / locomotor effect (intact (unoperated) rats [3]): less pronounced
- ED50 ([2]; nerve-injured paw, IP): 11.3 ± 0.23 mg/kg
- antinociception in response to mechanical and thermal noxious stimuli on the nerve-injured paw ([2]; nerve-injured paw): dose-related antinociception
- duration of antinociceptive effect ([2]; nerve-injured paw, IP): > 2 h
- antinociception on the control (sham-operated) paw ([2]; IP): No antinociception
- ataxia (intact (unoperated) rats [4]): no ataxia

SMILES: CN1CC[C@]23c4c5ccc(O)c4O[C@H]2[C@@H](O)C=C[C@H]3[C@H]1C5 [Morphine, reference compound]
- antinociception, drug alone, IP (Sprague-Dawley rats [5]; IP): dose-related antinociception
- antinociception, drug alone, IT (Sprague-Dawley rats [5]): dose-related antinociception
- % MPE (Sprague-Dawley rats [5]; morphine alone 30 μg IT): 60%
- % MPE (Sprague-Dawley rats [5]; morphine alone 10 mg/kg IP): 100%

SMILES: NC1(c2ccccc2Cl)CCCCC1=O (centres unmarked) [norketamine, 2-(2-chlorophenyl)-2-amino-cyclohexanone]
- adverse sequelae relative to an equal dose of ketamine (rats): fewer of the adverse sequelae
- anesthetic and analgesic potency relative to ketamine ([1]; speculated): one third that of ketamine
- sub-analgesic dose (little to no analgesic effect) (rat; in vivo): less than 3 mg/kg
- optimal dose (sufficient alone to provide analgesic relief) (rat; intraperitoneally (IP)): about 8 mg/kg
- NMDA receptor binding relative to ketamine enantiomers (NMDA receptor): less tightly than either S- or R-ketamine

SMILES: CNC1(c2ccccc2Cl)CCCCC1=O (racemic) [R,S-ketamine, 2-(2-chlorophenyl)-2-(methylamino)-cyclohexanone, reference compound]
- ED50 ([2]; nerve-injured paw, IP): 15.8 ± 0.38 mg/kg
- ataxia (intact (unoperated) rats [4]): marked ataxia

SMILES: N[C@]1(c2ccccc2Cl)CCCCC1=O [S-norketamine]
- motor (depressive) / locomotor effect (intact (unoperated) rats [3]): less for S than R isomer
- antinociception in response to mechanical and thermal noxious stimuli on the nerve-injured paw ([2]; nerve-injured paw): attenuated, in dose-related fashion
- ED50 (antinociceptive potency) ([2]; nerve-injured paw, IP): 7.3 ± 0.18 mg/kg
- antinociception on the control (sham-operated) paw ([2]; IP): Neither drug had effect
- plasma concentration associated with the significant analgesic effect [6]: 200 to 700 ng/mL
- ataxia (intact (unoperated) rats [4]): no ataxia
- effect on morphine tolerance (Sprague-Dawley rats [7]; S-norketamine given with morphine): reduction of morphine tolerance
- effect on oxycodone tolerance development (Sprague-Dawley rats [7]): tolerance of oxycodone is inhibited
- effect on oxycodone tolerance development (Sprague-Dawley rats [7]; listed as S-norketamine HCl): attenuation of oxycodone tolerance development
- ability to enhance morphine analgesia compared with ketamine-morphine interaction (Sprague-Dawley rats [5]; IP, comparison with Holtman et al., 2003): greater than that previously demonstrated for ketamine-morphine
- antinociception, drug alone, IP (Sprague-Dawley rats [5]; IP): did not produce an antinociceptive effect
- antinociception, drug alone, IT (Sprague-Dawley rats [5]): did not produce an antinociceptive effect
- potentiation of the antinociceptive effect of low dose morphine, IP (Sprague-Dawley rats [5]; S-norketamine 0.75-3 mg/kg IP with morphine 3 mg/kg IP): dose-dependently potentiated
- potentiation of the antinociceptive effect of low dose morphine, IT (Sprague-Dawley rats [5]; S-norketamine 10-100 μg IT with morphine 0.5 μg IT): dose-dependently potentiated
